# Measured values published in PubChem BioAssay (NCI).
#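 Following 48 hours of exposure in 96-well plates, responses at five concentrations were used to interpolate endpoints linearly. TGI marks complete inhibition of growth.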
# Tests used:
# Test in all cases: NCI-60 cell line screen, 48 h
# [1] = test system: LOX IMVI melanoma
# [2] = test system: SNB-19 CNS
# [3] = test system: KM12 colon
# [4] = test system: CAKI-1 renal
# [5] = test system: 786-0 renal
# [6] = test system: SR leukemia
# [7] = test system: NCI-H226 lung
# [8] = test system: COLO 205 colon
# [9] = test system: PC-3 prostate
# [10] = test system: NCI-H522 lung
# [11] = test system: NCI-H460 lung
# [12] = test system: MDA-MB-231 breast
# [13] = test system: SK-MEL-28 melanoma
# [14] = test system: HCC-2998 colon
# [15] = test system: SF-539 CNS
# [16] = test system: NCI/ADR-RES ovarian
# [17] = test system: SK-MEL-2 melanoma
# [18] = test system: DU-145 prostate
# [19] = test system: OVCAR-5 ovarian
# [20] = test system: M14 melanoma
# [21] = test system: UACC-62 melanoma
# [22] = test system: IGROV1 ovarian
# [23] = test system: MDA-N
# [24] = test system: NCI-H23 lung
# [25] = test system: MDA-MB-435
# [26] = test system: UO-31 renal
# [27] = test system: U251 CNS
# [28] = test system: CCRF-CEM leukemia
# [29] = test system: MALME-3M melanoma
# [30] = test system: HS 578T breast
# [31] = test system: HCT-116 colon
# [32] = test system: HOP-92 NSCLC
# [33] = test system: TK-10 renal
# [34] = test system: HOP-62 NSCLC
# [35] = test system: MOLT-4 leukemia
# [36] = test system: K-562 leukemia
# [37] = test system: HCT-15 colon
# [38] = test system: UACC-257 melanoma
# [39] = test system: SF-268 CNS
# [40] = test system: A549 NSCLC
# [41] = test system: RPMI-8226 leukemia
# [42] = test system: A498 renal
# [43] = test system: OVCAR-4 ovarian
# [44] = test system: OVCAR-3 ovarian
# [45] = test system: OVCAR-8 ovarian
# [46] = test system: ACHN renal
# [47] = test system: T-47D breast
# [48] = test system: MCF7 breast
# [49] = test system: BT-549 breast
# [50] = test system: SW-620 colon
# [51] = test system: RXF 393 renal
# [52] = test system: SF-295 CNS
# [53] = test system: SK-MEL-5 melanoma
# [54] = test system: EKVX NSCLC
# [55] = test system: SK-OV-3 ovarian
# [56] = test system: HT29 colon
# [57] = test system: SN12C renal
# [58] = test system: SNB-75 CNS
# [59] = test system: HL-60(TB) leukemia
structure (smiles),measurement,setting,value
CCOC(=O)Oc1ccc2c(c1)c(=O)c1c(NCCCN(CC)CC)ccc3nnn2c31,TGI,[1],12 µM
same,TGI,[2],19.5 µM
same,TGI,[3],19.8 µM
same,TGI,[4],9.75 µM
same,TGI,[5],15.7 µM
same,TGI,[6],> 53 µM
same,TGI,[7],19.8 µM
same,TGI,[8],25.1 µM
same,TGI,[9],20.9 µM
same,TGI,[10],19.7 µM
same,TGI,[11],15.2 µM
same,TGI,[12],21.8 µM
same,TGI,[13],33.2 µM
same,TGI,[14],21.8 µM
same,TGI,[15],19 µM
same,TGI,[16],28.1 µM
same,TGI,[17],30 µM
same,TGI,[18],17.4 µM
same,TGI,[19],33.5 µM
same,TGI,[20],25.4 µM
same,TGI,[21],29 µM
same,TGI,[22],34.2 µM
same,TGI,[23],20.6 µM
same,TGI,[24],29.3 µM
same,TGI,[25],18.3 µM
same,TGI,[26],15 µM
same,TGI,[27],23.6 µM
same,TGI,[28],6.88 µM
same,TGI,[29],29.7 µM
same,TGI,[30],40.7 µM
same,TGI,[31],15.8 µM
same,TGI,[32],24.6 µM
same,TGI,[33],17.5 µM
same,TGI,[34],12.5 µM
same,TGI,[35],> 100 µM
same,TGI,[36],> 52.7 µM
same,TGI,[37],21 µM
same,TGI,[38],29.8 µM
same,TGI,[39],28.2 µM
same,TGI,[40],16.9 µM
same,TGI,[41],10.1 µM
same,TGI,[42],23.2 µM
same,TGI,[43],20.2 µM
same,TGI,[44],20 µM
same,TGI,[45],19.5 µM
same,TGI,[46],15.8 µM
same,TGI,[47],31.1 µM
same,TGI,[48],15.7 µM
same,TGI,[49],32 µM
same,TGI,[50],16.2 µM
same,TGI,[51],19.8 µM
same,TGI,[52],21.3 µM
same,TGI,[53],23.2 µM
same,TGI,[54],23 µM
same,TGI,[55],23.4 µM
same,TGI,[56],15.9 µM
same,TGI,[57],19.1 µM
CNc1ncnc2c1cnn2Cc1cn(CCCCO)nn1,TGI,[1],> 100 µM
same,TGI,[2],> 100 µM
same,TGI,[3],> 100 µM
same,TGI,[4],> 100 µM
same,TGI,[5],> 100 µM
same,TGI,[6],> 100 µM
same,TGI,[7],> 100 µM
same,TGI,[8],> 100 µM
same,TGI,[9],> 100 µM
same,TGI,[10],> 100 µM
same,TGI,[11],> 100 µM
same,TGI,[12],> 100 µM
same,TGI,[13],> 100 µM
same,TGI,[14],> 100 µM
same,TGI,[15],> 100 µM
same,TGI,[16],> 100 µM
same,TGI,[17],> 100 µM
same,TGI,[18],> 100 µM
same,TGI,[19],> 100 µM
same,TGI,[20],> 100 µM
same,TGI,[21],> 100 µM
same,TGI,[22],> 100 µM
same,TGI,[23],> 100 µM
same,TGI,[24],> 100 µM
same,TGI,[25],> 100 µM
same,TGI,[26],> 100 µM
same,TGI,[27],> 100 µM
same,TGI,[28],> 100 µM
same,TGI,[29],> 100 µM
same,TGI,[30],> 100 µM
same,TGI,[31],> 100 µM
same,TGI,[32],> 100 µM
same,TGI,[33],> 100 µM
same,TGI,[34],> 100 µM
same,TGI,[35],> 100 µM
same,TGI,[36],> 100 µM
same,TGI,[37],> 100 µM
same,TGI,[38],> 100 µM
same,TGI,[39],> 100 µM
same,TGI,[40],> 100 µM
same,TGI,[41],> 100 µM
same,TGI,[42],> 100 µM
same,TGI,[43],> 100 µM
same,TGI,[44],> 100 µM
same,TGI,[45],> 100 µM
same,TGI,[46],> 100 µM
same,TGI,[47],> 100 µM
same,TGI,[48],> 100 µM
same,TGI,[49],> 100 µM
same,TGI,[50],> 100 µM
same,TGI,[51],> 100 µM
same,TGI,[52],> 100 µM
same,TGI,[53],> 100 µM
same,TGI,[54],> 100 µM
same,TGI,[55],> 100 µM
same,TGI,[56],> 100 µM
same,TGI,[57],> 100 µM
CCN1C(=O)CS/C1=N\NC(=O)CSc1nc2ccccc2c(=O)n1CC,TGI,[1],> 100 µM
same,TGI,[2],> 100 µM
same,TGI,[3],> 100 µM
same,TGI,[4],> 100 µM
same,TGI,[5],> 100 µM
same,TGI,[6],> 100 µM
same,TGI,[7],> 100 µM
same,TGI,[8],> 100 µM
same,TGI,[9],> 100 µM
same,TGI,[10],> 100 µM
same,TGI,[11],> 100 µM
same,TGI,[12],> 100 µM
same,TGI,[13],> 100 µM
same,TGI,[14],> 100 µM
same,TGI,[15],> 100 µM
same,TGI,[16],> 100 µM
same,TGI,[17],> 100 µM
same,TGI,[18],> 100 µM
same,TGI,[19],> 100 µM
same,TGI,[20],> 100 µM
same,TGI,[21],> 100 µM
same,TGI,[22],> 100 µM
same,TGI,[23],> 100 µM
same,TGI,[24],> 100 µM
same,TGI,[25],> 100 µM
same,TGI,[26],> 100 µM
same,TGI,[27],> 100 µM
same,TGI,[28],> 100 µM
same,TGI,[29],> 100 µM
same,TGI,[30],> 100 µM
same,TGI,[31],> 100 µM
same,TGI,[58],> 100 µM
same,TGI,[33],> 100 µM
same,TGI,[34],> 100 µM
same,TGI,[35],> 100 µM
same,TGI,[36],> 100 µM
same,TGI,[37],> 100 µM
same,TGI,[38],> 100 µM
same,TGI,[39],> 100 µM
same,TGI,[40],> 100 µM
same,TGI,[41],> 100 µM
same,TGI,[42],> 100 µM
same,TGI,[43],> 100 µM
same,TGI,[44],> 100 µM
same,TGI,[45],> 100 µM
same,TGI,[46],> 100 µM
same,TGI,[47],> 100 µM
same,TGI,[48],> 100 µM
same,TGI,[49],> 100 µM
same,TGI,[50],> 100 µM
same,TGI,[51],> 100 µM
same,TGI,[52],> 100 µM
same,TGI,[59],> 100 µM
same,TGI,[53],> 100 µM
same,TGI,[54],> 100 µM
same,TGI,[55],> 100 µM
same,TGI,[57],> 100 µM
